Reference: the supplement of paper PMC10307832

Key:
Experiment in all cases: relative viability (nuclei count vs DMSO), 5 days (fraction); higher = more cells survive
Selisistat = compound: C1CC(C2=C(C1)C3=C(N2)C=CC(=C3)Cl)C(=O)N [Selisistat]
Outline: (§1)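 Viability was defined as treated-well nuclei divided by vehicle-well nuclei, with the median taken over replicate plates. Cells from lung cancer lines sat overnight at 37 °C in 1536-well plates, received five √10-spaced library-drug doses by pinning on vehicle-anchored plates, and grew 5 days without medium change before one-step fixation, permeabilisation and Hoechst staining, 4× imaging and MetaXpress nuclear counts. Only plates with control CV under 25% and at least one doubling were kept.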

Serdemetan = compound: c1ccc2c(CCNc3ccc(Nc4ccncc4)cc3)c[nH]c2c1 [Serdemetan]
Outline: as §1

Selisistat + Alpelisib = compound: C1CC(C2=C(C1)C3=C(N2)C=CC(=C3)Cl)C(=O)N [Selisistat] + Cc1nc(NC(=O)N2CCC[C@H]2C(N)=O)sc1-c1ccnc(C(C)(C)C(F)(F)F)c1 [Alpelisib] (partner 2 µM)
Outline: (§2)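 Values are medians from duplicate plates. Each reflects relative viability, defined as the nuclei count of treated wells over that of vehicle wells. Lung cancer cell lines in 1536-well plates were pin-tool dosed one day after seeding with one drug alone or with a fixed anchor-drug dose plus five library-drug doses (not always all listed) in √10 steps, then fixed, stained and imaged at 4× after 5 days.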

Serdemetan + Bortezomib = compound: c1ccc2c(CCNc3ccc(Nc4ccncc4)cc3)c[nH]c2c1 [Serdemetan] + CC(C)C[C@H](NC(=O)[C@H](Cc1ccccc1)NC(=O)c1cnccn1)B(O)O [Bortezomib] (partner 0.002 µM)
Outline: as §2

Cell Line | relative viability (Selisistat; 0.4 µM) | relative viability (Selisistat; 1.265 µM) | relative viability (Selisistat; 4 µM) | relative viability (Selisistat; 12.65 µM) | relative viability (Selisistat; 40 µM) | relative viability (Serdemetan; 0.04 µM) | relative viability (Serdemetan; 0.1265 µM) | relative viability (Serdemetan; 0.4 µM) | relative viability (Serdemetan; 1.265 µM) | relative viability (Serdemetan; 4 µM) | relative viability (Selisistat + Alpelisib; first compound 0.4 µM) | relative viability (Selisistat + Alpelisib; first compound 1.265 µM) | relative viability (Selisistat + Alpelisib; first compound 4 µM) | relative viability (Selisistat + Alpelisib; first compound 12.65 µM) | relative viability (Selisistat + Alpelisib; first compound 40 µM) | relative viability (Serdemetan + Bortezomib; first compound 0.04 µM) | relative viability (Serdemetan + Bortezomib; first compound 0.1265 µM) | relative viability (Serdemetan + Bortezomib; first compound 0.4 µM) | relative viability (Serdemetan + Bortezomib; first compound 1.265 µM) | relative viability (Serdemetan + Bortezomib; first compound 4 µM)
NCI-H520 | 0.978 | 0.939 | 0.995 | 0.937 | 0.877 | 0.929 | 0.977 | 0.951 | 0.633 | 0.856 | 0.762 | 0.736 | 1.07 | 0.957 | 0.73 | 0.752 | 0.561 | 0.615 | 0.476 | 0.572
NCI-H647 | 0.958 | 0.964 | 0.826 | 0.959 | 1.03 | 0.905 | 0.964 | 0.964 | 0.819 | 0.655 | 1.1 | 1.03 |  | 1.09 | 1.31 | 0.95 | 0.914 | 0.95 | 0.559 | 0.47
NCI-H1792 | 0.927 | 1.18 |  | 0.862 | 0.855 | 0.934 | 0.674 | 0.848 | 0.593 | 0.62 | 0.696 | 0.603 |  | 0.685 | 0.693 | 0.953 | 0.958 | 0.936 | 0.347 | 0.726
SK-LU-1 | 1.08 | 1.07 | 1.08 | 1.08 | 1.13 | 1.02 | 0.999 | 1.1 | 0.802 | 0.828 | 1.02 | 1.05 | 1.33 | 1.03 | 0.846 | 1.15 | 0.921 | 1.24 | 1.1 | 0.988
NCI-H1299 | 1.05 | 1.03 | 1.04 | 1.02 | 1.01 | 1.01 | 1 | 0.975 | 0.895 | 0.754 | 1.02 | 1.05 | 1.14 | 1.03 | 1.03 | 0.985 | 1.01 | 0.989 | 0.887 | 0.804
NCI-H2009 | 1.01 | 1.03 | 0.772 | 0.933 | 0.975 | 0.97 | 0.967 | 1 | 0.776 | 0.885 | 1.22 | 1.1 | 1.25 | 0.835 | 1.12 | 0.95 | 0.986 | 0.929 | 0.787 | 0.797
LOU-NH91 | 1.05 | 0.938 | 0.884 | 0.966 | 0.973 | 1.02 | 0.946 | 0.694 | 0.783 | 0.999 | 0.71 | 0.681 | 0.619 | 0.71 | 0.723 | 0.536 | 0.485 | 0.412 | 0.409 | 0.433
NCI-H2405 | 1.06 | 0.88 | 0.657 | 0.984 | 0.992 | 0.99 | 1.01 | 0.984 | 0.921 | 0.859 | 0.769 |  |  | 0.834 | 0.845 | 0.976 | 0.915 | 0.905 | 0.738 | 0.949
LCLC-97TM1 | 0.941 | 0.933 |  | 0.962 | 1.09 | 1.08 | 0.975 | 0.925 | 0.802 | 0.894 | 0.233 | 0.229 | 0.278 | 0.275 | 0.219 | 0.546 | 0.517 | 0.809 |  | 0.307
NCI-H596 | 1.08 | 0.994 | 0.849 | 1.03 | 0.983 | 1.03 | 0.981 | 0.989 | 0.76 | 0.768 | 0.587 | 0.482 | 0.42 | 0.502 | 0.482 | 1.17 | 0.606 | 1.11 | 0.649 | 0.818
NCI-H727 | 0.95 | 1 |  | 0.863 | 0.895 | 0.936 | 0.808 | 1.07 | 0.669 | 0.555 | 0.553 | 0.714 |  |  | 0.458 | 0.923 | 1.01 | 1.03 | 0.557 | 0.431
H3255 | 0.984 | 0.943 | 0.978 | 0.948 | 1.03 | 0.968 | 0.944 | 0.987 | 0.787 | 0.896 | 0.724 | 0.662 | 0.725 | 0.62 | 0.786 | 0.827 | 0.68 | 0.886 | 0.746 | 0.7
NCI-H1437 | 0.945 | 0.974 | 0.805 | 0.933 | 0.855 | 0.905 | 0.994 | 0.98 | 0.928 | 0.799 | 1.03 | 0.987 | 0.787 | 0.981 | 0.919 | 0.545 | 0.497 | 0.471 | 0.46 | 0.547
LU99A | 1.09 | 0.992 | 0.987 | 0.874 | 1.01 | 1.01 | 0.911 | 0.903 | 0.52 | 0.427 | 0.538 | 0.553 | 0.565 | 0.505 | 0.514 | 1.19 | 1.08 | 1.12 | 0.4 | 0.255
HCC-827 | 1.02 | 1.04 | 0.952 | 0.975 | 1 | 1.04 | 0.972 |  | 0.862 | 0.83 | 0.98 | 0.976 | 0.919 | 0.999 | 0.978 | 1.05 | 0.959 |  | 0.954 | 1.01
HCC-366 | 0.997 | 0.957 | 0.894 | 1.01 | 1 | 1 | 0.989 | 0.978 | 0.121 | 0.101 | 0.341 | 0.337 | 0.268 | 0.397 | 0.354 | 1.08 | 1.04 | 1.03 | 0.0358 | 0.0541
BEN | 1.01 | 0.967 | 0.738 | 0.878 | 0.9 | 0.996 | 0.924 | 1.02 | 0.686 | 0.882 | 0.953 | 0.986 | 0.818 | 0.9 | 0.884 | 0.785 | 0.924 | 0.766 | 0.48 | 0.763
NCI-H23 | 0.989 | 0.941 |  | 0.906 | 1.08 | 0.972 | 1.17 | 1.11 | 0.817 | 1.04 | 0.811 | 0.871 |  | 0.662 | 0.688 | 1.1 | 1.07 | 1.05 | 0.81 | 1.09
201T | 1.02 | 0.996 | 0.875 | 1.01 | 0.996 | 0.983 | 0.987 | 0.937 | 0.919 | 0.919 | 1.04 | 0.986 | 0.981 | 1.03 | 1.02 | 1.08 | 1.14 | 1.1 | 1.05 | 1.06
NCI-H460 | 0.986 | 0.961 | 0.933 | 0.968 | 1.03 | 0.936 | 0.962 | 0.926 | 0.77 | 0.316 | 0.517 | 0.54 |  | 0.403 | 0.35 | 1.05 | 1.1 | 1.19 | 0.561 | 0.1
NCI-H661 | 1.02 | 1 | 1 | 0.901 | 0.906 | 0.974 | 0.977 | 1.01 | 0.815 | 0.94 | 0.766 | 0.675 | 0.555 | 0.508 | 0.546 | 0.78 | 0.909 | 0.766 | 0.84 | 0.74
HCC-15 | 1.08 | 1.04 |  | 1.02 | 1.21 | 1.03 | 0.999 | 0.94 | 0.807 | 0.712 | 1.04 | 0.9 |  | 0.775 | 0.878 | 1 | 1.01 | 1.01 | 0.954 | 0.855
NCI-H1563 | 0.972 | 0.886 | 0.906 | 0.865 | 0.902 | 0.866 | 0.849 | 0.8 | 0.622 | 0.744 | 0.834 | 0.889 | 0.853 | 0.778 | 0.773 | 0.723 | 0.925 | 0.692 | 0.742 | 0.648
ABC-1 | 0.897 | 0.869 | 0.647 | 0.772 | 0.819 | 0.948 | 0.923 | 0.994 | 0.603 | 0.56 | 0.977 | 0.972 | 0.872 | 1.15 | 0.921 | 0.294 | 0.328 | 0.317 | 0.307 | 0.278
LCLC-103H | 1.06 | 1.05 | 0.819 | 0.947 | 0.988 | 0.993 | 1.01 | 0.995 | 0.877 | 1.04 | 1.03 | 0.963 | 0.99 | 0.92 | 0.94 | 1.12 | 1.05 | 0.96 | 0.736 | 1.2
NCI-H441 | 1.22 | 1.11 | 0.774 | 0.955 | 1.01 | 0.981 | 1.06 | 1.06 | 0.815 | 0.78 | 0.804 | 0.64 |  | 0.691 | 0.707 | 0.459 | 0.784 | 0.906 | 0.569 | 0.643
EPLC-272H | 0.966 | 1.03 |  | 0.931 | 1.04 | 1.17 | 1.09 | 0.897 | 0.833 | 0.912 | 1.02 | 0.853 |  | 0.977 | 0.885 | 0.967 | 0.931 | 0.899 | 0.723 | 0.634
